According to US10717712B2, “Pegylated prodrugs of phenolic TRPV1 agonists” (CONCENTRIC ANALGESICS, INC., priority 2018, dated 2020):

Test: Aqueous solubility in DI water (visual inspection)
Type: physicochemical
Details: HCl salt, incubated at 50 or 100 mg/mL
Protocol: In order to determine the aqueous solubility of the compounds described herein, the HCl salts of the following compounds were incubated at either 50 or 100 mg/mL in DI water and visually inspected for insoluble material.

For `CNCC1CN(C(=O)CCOCCOCCOCCOC)CCN1C(=O)Oc1ccc(CNC(=O)CCCC/C=C/C(C)C)cc1OC` (stereo not shown) [Compound 1, (E)-2-methoxy-4-((8-methylnon-6-enamido)methyl)phenyl 2-((methylamino)methyl)-4-(2,5,8,11-tetraoxatetradecan-14-oyl)piperazine-1-carboxylate], which solubility is on record?
The solubility was over 100 mg/mL.
